From PMC3216401 (Antiviral research, 2011)
Like-named read-outs stand apart in the source and are kept apart here.

How the values were obtained:
[1] = test system: Influenza A/Vietnam/1203/2004 (H5N1)
[2] = test system: Influenza A/Vietnam/1203/2004 (H5N1); remark: listed apart in the source
influenza virus = settings: mouse, in vivo, sc; cited from earlier work
[3] = test system: Influenza A/Vietnam/1203/2004 (H5N1); test: microbe, parasite or virus in culture; settings: H5N1, MDCK, read-out: IC50, Neutral Red Uptake Assay
[4] = test system: Influenza A/Vietnam/1203/2004 (H5N1); test: microbe, parasite or virus in culture; settings: H5N1, MDCK, read-out: IC50, Visual Assay
[5] = test system: A/Hong Kong/213/2003 (H5N1); test: microbe, parasite or virus in culture; settings: Influenza A virus, H5N1, MDCK, read-out: IC50, Visual Assay
influenza viruses = test: microbe, parasite or virus in culture; assay type: cell-based, influenza A and B viruses; settings: Influenza A virus, read-out: IC50 values, range
[6] = test system: A/Hong Kong/213/2003 (H5N1)
[7] = test system: A/Thailand/2(Kan-1)/16/2004 (H5N1); test: microbe, parasite or virus in culture; settings: Influenza A virus, H5N1, MDCK, read-out: IC50, Visual Assay
influenza virus (H1N1) = settings: read-out: EC50, influenza virus replication in MDCK cells; cited from earlier work
[8] = test system: A/Thailand/2(Kan-1)/16/2004 (H5N1)
[9] = test system: A/Hong Kong/213/2003 (H5N1); remark: listed apart in the source
[10] = test system: A/Thailand/2(Kan-1)/16/2004 (H5N1); remark: listed apart in the source
[11] = test system: A/Hong Kong/213/2003 (H5N1); test: microbe, parasite or virus in culture; settings: Influenza A virus, H5N1, MDCK, read-out: IC50, Neutral Red Uptake Assay
[12] = test system: A/Thailand/2(Kan-1)/16/2004 (H5N1); test: microbe, parasite or virus in culture; settings: Influenza A virus, H5N1, MDCK, read-out: IC50, Neutral Red Uptake Assay
in vitro [13] = settings: dog, CC50, Visual Assay
[14] = test system: A/Hong Kong/213/2003 (H5N1); test: microbe, parasite or virus in culture; assay type: cell-based; settings: Influenza A virus, H5N1, MDCK, read-out: IC90, VYR Assay
in vitro [15] = settings: dog, CC50, Neutral Red Uptake Assay
[16] = test system: influenza A/Vietnam/1203/2004 H5N1 virus; settings: in vivo
[17] = test system: Influenza A/Vietnam/1203/2004 (H5N1); test: microbe, parasite or virus in culture; assay type: cell-based; settings: H5N1, MDCK, read-out: IC90, VYR Assay
[18] = test system: A/Thailand/2(Kan-1)/16/2004 (H5N1); test: microbe, parasite or virus in culture; assay type: cell-based; settings: Influenza A virus, H5N1, MDCK, read-out: IC90, VYR Assay
[19] = mouse, in vivo
MDCK cells [20] = test system: MDCK cells
MDCK cells [21] = test system: MDCK cells; remark: listed apart in the source

Row | SMILES | SI (CC50/IC50), Neutral Red Uptake Assay [1] | SI (CC50/IC50), Visual Assay [2] | IC50 [3] | IC50 [4] | IC50 [5] | SI (CC50/IC50), Visual Assay [6] | IC50 [7] | SI (CC50/IC50), Visual Assay [8] | SI (CC50/IC50), Neutral Red Uptake Assay [9] | SI (CC50/IC50), Neutral Red Uptake Assay [10] | IC50 [11] | IC50 [12] | other results
1 | Nc1nc2c(ncn2[C@@H]2O[C@H](CO)[C@@H](O)[C@H]2F)c(=O)[nH]1 [2’-deoxy-2’-fluoroguanosine] | >12 | >4.8 | 8.6 µM | 21 µM | 8.5 µM | >12 | > 100 µM | 0 |  |  |  |  | Mice protected from death (influenza virus): 50%; IC50 (influenza viruses): 8.5 to 21 µM; EC50 (influenza virus (H1N1)): 18.2 µM
2 | Nc1ncnc2c1ncn2[C@@H]1O[C@H](CO)[C@@H](O)[C@H]1F [2’-deoxy-2’-fluoroadenosine] | 0 | 0 | > 100 µM | > 100 µM | > 100 µM | 0 | > 100 µM | 0 | 0 | 0 | > 100 µM | > 100 µM | 
3 | Nc1nc(=O)n([C@H]2C[C@H](O)[C@@H](CO)O2)cc1F [2'-deoxy-5-fluorocytidine] |  |  | 0.09 ± 0.1 µM | 0.19 ± 0.03 µM | > 100 µM | 0 ± 0 | > 100 µM | 0 ± 0 | 0 ± 0 | 0 ± 0 | > 100 µM | > 100 µM | CC50 (in vitro [13]): > 100 µM; IC90 [14]: > 100 µM; CC50 (in vitro [15]): > 100 µM; Inhibition in the H5N1 mouse model [16]: not inhibitory; Toxicity in the H5N1 mouse model [16]: very toxic; Promotion of survival of infected mice ([16]; mouse): not very effective; Protection from death, i.p. ([16]; mouse): not shielded from death; IC90 [17]: 0.13 µM; IC90 [18]: > 100 µM; Tolerability [19]: well- tolerated; Toxicity in mice [19]: considerable toxicity in the form of severe weight loss
4 | O=c1ccn([C@@H]2O[C@H](CO)[C@@H](O)[C@H]2F)c(=O)[nH]1 [2’-deoxy-2’-fluorouridine] | 0 | 0 | > 100 µM | > 100 µM |  |  | > 100 µM | 0 |  |  |  |  | 
5 | [N-]=[N+]=N[C@@H]1[C@H](O)[C@@H](COP(=O)(O)OP(=O)(O)OP(=O)(O)O)O[C@H]1n1ccc(N)nc1=O [2’-azido-2’-deoxycytidine, 2'-azido-2'-deoxyctidine-5'-triphosphate] | > 2030 |  |  |  |  | 0 ± 0 |  | 0 ± 0 | 0 ± 0 | 0 ± 0 |  |  | CC50, Visual Assay (MDCK cells [20]): >100 ± 0 µM; CC50, Neutral Red Uptake Assay (MDCK cells [21]): >100 ± 0 µM
6 | Nc1ccn([C@@H]2O[C@H](CO)[C@@H](O)[C@H]2I)c(=O)n1 [2’-iodo-2’-deoxycytidine] | 0 | 0 | > 100 µM | > 100 µM | > 100 µM | 0 | > 100 µM | 0 | 0 | 0 | > 100 µM | > 100 µM | 
